From patent US20100086931A1, “METHOD FOR ASSAYING ACTION OF ANTITUMOR AGENT USING DECREASE IN GENE EXPRESSION LEVEL AS INDEX” (Eisai R&D Management Co., Ltd., priority 2007, published 2010)

Legend:
[1] = test system: peripheral blood mononuclear cells (PBMC); assay: Microarray analysis (Human Exon 1.0 ST Array) of gene expression in PBMC; type: cell-based; settings: vs untreated group
From the text: Since it is not easy to obtain a cancer tissue clinically, the measurement of the marker in hemocytes readily obtainable in peripheral blood would be more useful. It was then examined whether the marker gene obtained in cancer cells could change in peripheral mononuclear cells in a similar manner as observed in the cancer cells. Specifically peripheral blood was taken from three normal individuals (volunteers) and peripheral mononuclear cells were purified and treated with (8E,12E,14E)-7-((4-Cycloheptylpiperazin-1-yl)carbonyl)oxy-3,6,16,21-tetrahydroxy-6,10,12,16,20-pentamethyl-18,19-epoxytricosa-8,12,14-trien-11-olide for six hours, followed by measurement of change in expression of the gene by a microarray (Human Exon 1.0 ST Array: Affymetrix).
Ficoll-Paque PLUS solution (Amersham, 17-1440-02) was slowly added to the blood taken (with heparin added) from healthy individuals to form a layer underneath the blood (15 ml of Ficoll-Paque PLUS solution was added to 25 ml of blood). After the mixture was centrifuged at 1500 rpm for 30 min, the upper part containing platelets was removed and then a layer containing mononuclear cells was transferred to another tube. The cells were suspended in PBS and centrifuged at 1500 rpm for 5 min, followed by removal of the supernatant. After these steps were repeated twice, the cells were again suspended in RPMI1640 (containing 10% FBS, penicillin, and streptomycin) and the number of the cells was then counted.
PBMC was suspended in RPMI1640 medium (containing 10% FBS, penicillin, and streptomycin) to 5×10^6 cells/ml and 1 ml of the suspension was plated per well of a 24-well plate. Immediately, 111 μl of 10 times-concentrated (8E,12E,14E)-7-((4-Cycloheptylpiperazin-1-yl)carbonyl)oxy-3,6,16,21-tetrahydroxy-6,10,12,16,20-pentamethyl-18,19-epoxytricosa-8,12,14-trien-11-olide was added to the well (six wells per each concentration tested). The cells were then cultured in an incubator with 5% carbon dioxide gas at 37° C. Three hours later, the supernatant was collected and centrifuged at 1500 rpm for five minutes. TRI reagent (SIGMA) (1 ml) was added to each well of the plate from which the supernatant was removed to harvest the cells, which was added to the centrifuged pellet to dissolve. RNA was purified in accordance with the protocol of TRI reagent. RNA was further purified using RNeasy (QIAGEN) and, in accordance with the protocol, DNase I was added to the samples during the procedure. Absorbance at 260 nm was measured to quantify an amount of RNA.
Ribosomal RNA was removed from 1 μg of each RNA by using RiboMinus Human/Mouse Transcriptome Isolation Kit (Invitrogen). Single stranded cDNA synthesis, double stranded cDNA synthesis, cRNA synthesis, second single stranded cDNA synthesis, cDNA fragmentation, and cDNA labeling in order were carried out for total RNA from which ribosomal RNA was removed, using GeneChip Whole Transcript Sense Target Labeling and Control Reagents (Affymetrix) to make a cDNA probe. Subsequently, the cDNA probe was used for hybridization with Human Exon 1.0 ST Array (Affymetrix). The array was washed and stained, and luminescence intensity was measured by a scanner.
The expression level of the gene was quantified by using Expression Console Ver. 1.0 (Affymetrix) with Summarization Method and Normalization Method being set to “Median polish as used in RMA” and “None”, respectively.
Genes showing the change in the expression of the gene in both groups with the 10 nM treatment and the 30 nM treatment is, compared to that in the […], less than 25%; the expression level of the gene in the untreated group is more than 100; both P values of t-test for the 10 nM treated group and the untreated group, and for the 30 nM treated group and the untreated group are less than 5% were picked out. (Table 4). […]

[2] = test system: peripheral blood mononuclear cells (PBMC); assay: qPCR (TaqMan) measurement of mRNA expression in PBMC treated with compound A; type: cell-based, human; settings: 30 nM; untreated cells = 1; corrected by 18S rRNA

CCC(O)C(C)C1OC1CC(C)(O)/C=C/C=C(\C)C1OC(=O)CC(O)CCC(C)(O)C(OC(=O)N2CCN(C3CCCCCC3)CC2)/C=C/C1C (stereo not drawn) [E7107, (8E,12E,14E)-7-((4-Cycloheptylpiperazin-1-yl)carbonyl)oxy-3,6,16,21-tetrahydroxy-6,10,12,16,20-pentamethyl-18,19-epoxytricosa-8,12,14-trien-11-olide]
Fold Change in expression level of ARFGAP3 (Transcript Cluster 3962587) ([1]; 10 nM): 0.21
Fold Change in expression level of C13orf31 (Transcript Cluster 3487600) ([1]; 10 nM): 0.21
Fold Change in expression level of CD274 (Transcript Cluster 3161082) ([1]; 10 nM): 0.19
Fold Change in expression level of CTSL1 (Transcript Cluster 3178147) ([1]; 10 nM): 0.09
Fold Change in expression level of DOCK4 (Transcript Cluster 3068097) ([1]; 10 nM): 0.16
Fold Change in expression level of ENG (Transcript Cluster 3226097) ([1]; 10 nM): 0.24
Fold Change in expression level of GK (Transcript Cluster 3972929) ([1]; 10 nM): 0.19
Fold Change in expression level of KMO (Transcript Cluster 2388085) ([1]; 10 nM): 0.13
Fold Change in expression level of KYNU (Transcript Cluster 2508520) ([1]; 10 nM): 0.10
Fold Change in expression level of LAIR1 (Transcript Cluster 3870824) ([1]; 10 nM): 0.21
Fold Change in expression level of NRIP3 (Transcript Cluster 3362159) ([1]; 10 nM): 0.15
Fold Change in expression level of OLR1 (Transcript Cluster 3444043) ([1]; 10 nM): 0.09
Fold Change in expression level of P2RX4 (Transcript Cluster 3434760) ([1]; 10 nM): 0.22
Fold Change in expression level of PIK3R5 (Transcript Cluster 3744680) ([1]; 10 nM): 0.23
Fold Change in expression level of PLA2G7 (Transcript Cluster 2955827) ([1]; 10 nM): 0.12
Fold Change in expression level of RCN1 (Transcript Cluster 3325503) ([1]; 10 nM): 0.09
Fold Change in expression level of SEMA6B (Transcript Cluster 3846860) ([1]; 10 nM): 0.23
Fold Change in expression level of SLAMF7 (Transcript Cluster 2363202) ([1]; 10 nM): 0.15
Fold Change in expression level of SLC7A11 (Transcript Cluster 2786322) ([1]; 10 nM): 0.13
Fold Change in expression level of SLC37A2 (Transcript Cluster 3354443) ([1]; 10 nM): 0.21
Fold Change in expression level of SLC41A2 (Transcript Cluster 3469180) ([1]; 10 nM): 0.21
Fold Change in expression level of SLC43A2 (Transcript Cluster 3740367) ([1]; 10 nM): 0.22
Fold Change in expression level of SLC43A3 (Transcript Cluster 3373845) ([1]; 10 nM): 0.17
Fold Change in expression level of STEAP4 (Transcript Cluster 3060332) ([1]; 10 nM): 0.20
Fold Change in expression level of TNFAIP6 (Transcript Cluster 2510464) ([1]; 10 nM): 0.18
Fold Change in expression level of TNFSF15 (Transcript Cluster 3222128) ([1]; 10 nM): 0.10
Fold Change in expression level of TRAF1 (Transcript Cluster 3223738) ([1]; 10 nM): 0.19
Fold Change in expression level of TRAPPC4 (Transcript Cluster 3351775) ([1]; 10 nM): 0.23
Fold Change in expression level of ARFGAP3 (Transcript Cluster 3962587) ([1]; 30 nM): 0.14
Fold Change in expression level of C13orf31 (Transcript Cluster 3487600) ([1]; 30 nM): 0.19
Fold Change in expression level of CD274 (Transcript Cluster 3161082) ([1]; 30 nM): 0.18
Fold Change in expression level of CTSL1 (Transcript Cluster 3178147) ([1]; 30 nM): 0.09
Fold Change in expression level of DOCK4 (Transcript Cluster 3068097) ([1]; 30 nM): 0.14
Fold Change in expression level of ENG (Transcript Cluster 3226097) ([1]; 30 nM): 0.20
Fold Change in expression level of GK (Transcript Cluster 3972929) ([1]; 30 nM): 0.21
Fold Change in expression level of KMO (Transcript Cluster 2388085) ([1]; 30 nM): 0.13
Fold Change in expression level of KYNU (Transcript Cluster 2508520) ([1]; 30 nM): 0.10
Fold Change in expression level of LAIR1 (Transcript Cluster 3870824) ([1]; 30 nM): 0.14
Fold Change in expression level of NRIP3 (Transcript Cluster 3362159) ([1]; 30 nM): 0.13
Fold Change in expression level of OLR1 (Transcript Cluster 3444043) ([1]; 30 nM): 0.04
Fold Change in expression level of P2RX4 (Transcript Cluster 3434760) ([1]; 30 nM): 0.22
Fold Change in expression level of PIK3R5 (Transcript Cluster 3744680) ([1]; 30 nM): 0.21
Fold Change in expression level of PLA2G7 (Transcript Cluster 2955827) ([1]; 30 nM): 0.15
Fold Change in expression level of RCN1 (Transcript Cluster 3325503) ([1]; 30 nM): 0.17
Fold Change in expression level of SEMA6B (Transcript Cluster 3846860) ([1]; 30 nM): 0.22
Fold Change in expression level of SLAMF7 (Transcript Cluster 2363202) ([1]; 30 nM): 0.14
Fold Change in expression level of SLC7A11 (Transcript Cluster 2786322) ([1]; 30 nM): 0.06
Fold Change in expression level of SLC37A2 (Transcript Cluster 3354443) ([1]; 30 nM): 0.23
Fold Change in expression level of SLC41A2 (Transcript Cluster 3469180) ([1]; 30 nM): 0.17
Fold Change in expression level of SLC43A2 (Transcript Cluster 3740367) ([1]; 30 nM): 0.18
Fold Change in expression level of SLC43A3 (Transcript Cluster 3373845) ([1]; 30 nM): 0.14
Fold Change in expression level of STEAP4 (Transcript Cluster 3060332) ([1]; 30 nM): 0.22
Fold Change in expression level of TNFAIP6 (Transcript Cluster 2510464) ([1]; 30 nM): 0.19
Fold Change in expression level of TNFSF15 (Transcript Cluster 3222128) ([1]; 30 nM): 0.07
Fold Change in expression level of TRAF1 (Transcript Cluster 3223738) ([1]; 30 nM): 0.17
Fold Change in expression level of TRAPPC4 (Transcript Cluster 3351775) ([1]; 30 nM): 0.21
ZCCHC8 mRNA expression level (qPCR) [2]: 0.13
